The results in this text go back to US8063071B2 (GlaxoSmithKline, LLC, priority 2007, dated 2011).

In experiment [1] the target is T1, Recombinant human IKKβ (residues 1-737) (Homo sapiens, UniProt O14920).
T1 construct: Recombinant human IKKβ (residues 1-737); GST (C); made in house
T1 sequence (O14920 1-737): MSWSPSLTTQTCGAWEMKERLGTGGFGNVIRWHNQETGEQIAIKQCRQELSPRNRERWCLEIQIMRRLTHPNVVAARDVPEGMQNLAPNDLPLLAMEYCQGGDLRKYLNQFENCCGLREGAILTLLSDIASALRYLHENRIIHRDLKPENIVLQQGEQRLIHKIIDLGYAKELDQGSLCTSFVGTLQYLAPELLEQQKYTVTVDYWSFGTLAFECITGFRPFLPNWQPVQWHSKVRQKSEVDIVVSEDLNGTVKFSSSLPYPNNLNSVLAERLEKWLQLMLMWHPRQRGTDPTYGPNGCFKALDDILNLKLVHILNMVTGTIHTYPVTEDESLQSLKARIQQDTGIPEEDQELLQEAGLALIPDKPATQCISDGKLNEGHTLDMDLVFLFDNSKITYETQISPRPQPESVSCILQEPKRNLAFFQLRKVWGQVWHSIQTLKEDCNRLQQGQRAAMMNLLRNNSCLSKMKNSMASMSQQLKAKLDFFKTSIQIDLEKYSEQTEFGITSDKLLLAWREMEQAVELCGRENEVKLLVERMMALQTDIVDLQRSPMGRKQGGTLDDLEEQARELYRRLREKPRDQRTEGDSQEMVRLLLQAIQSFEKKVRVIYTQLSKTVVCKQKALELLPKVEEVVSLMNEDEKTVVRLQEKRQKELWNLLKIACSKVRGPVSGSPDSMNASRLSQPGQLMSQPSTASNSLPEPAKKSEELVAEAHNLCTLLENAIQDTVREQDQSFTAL
The experiment can be described thus: IKK2 assay (TR-FRET). The experiment is classed as biochemical. As to conditions: ATP 1 μM final, read-out: pIC50 against IKK2 (converted). In a few lines:
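Baculovirus-expressed C-terminal GST-tagged IKKβ (0.5-5 nM final) in HEPES pH 7.4, MgCl2, CHAPS, DTT, BSA with 1.7% DMSO; 25 nM GST-IB substrate and 1 μM ATP, 15 min at room temperature. EDTA stop; phospho-Ser32/36 detected by Eu-antibody/APC-anti-GST TR-FRET, 665/620 nm ratio.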
In general terms: In TR-FRET formats the signal depends on donor and acceptor labels being close together.

Experiment [2] concerns human monocyte stimulated cytokine production (TNF-α). The experiment is described as follows: Monocyte assay (LPS-stimulated TNF-α production). The experiment is classed as cell-based. As to conditions: 24 h, 200 ng/mL LPS, TNF-α by ELISA. In a few lines:
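Human CD14+ monocytes were purified from blood and plated at 1×10^6 cells/mL in RPMI 1640 with 10% FBS. Compound was added 30 min before stimulation with 200 ng/mL LPS (0.1% DMSO final), followed by 24 hrs at 37 C. Supernatant TNF-α was measured by ELISA, and viability by trypan blue exclusion.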

Counter-ions that a name gives are not always drawn.

For the compound `CCS(=O)(=O)N1CCC(c2c[nH]c3c(C(N)=O)cc(-c4cccc(CNC[C@@H]5CCCO5)c4)cc23)CC1` [Example 307, 3-[1-(ethylsulfonyl)-4-piperidinyl]-5-[3-({[(2S)-tetrahydro-2-furanylmethyl]amino}methyl)phenyl]-1H-indole-7-carboxamide trifluoroacetate], the IC50 is at most 10 µM in experiment [1] and at most 1.5 µM in experiment [2].

Regarding `CCS(=O)(=O)N1CCC(c2c[nH]c3c(C(N)=O)cc(-c4cccc(CNCC(C)(C)C)c4)cc23)CC1` [Example 308, 5-(3-{[(2,2-dimethylpropyl)amino]methyl}phenyl)-3-[1-(ethylsulfonyl)-4-piperidinyl]-1H-indole-7-carboxamide trifluoroacetate], the results for the IC50 in experiment [1] and in experiment [2] were at most 10 µM and at most 1.5 µM, respectively.

For `CCC(C)CNCc1cccc(-c2cc(C(N)=O)c3[nH]cc(C4CCN(S(=O)(=O)CC)CC4)c3c2)c1` (stereo not shown) [Example 309, 3-[1-(ethylsulfonyl)-4-piperidinyl]-5-(3-{[(2-methylbutyl)amino]methyl}phenyl)-1H-indole-7-carboxamide], the results for the IC50 in experiment [1] and in experiment [2] were at most 10 µM and at most 1.5 µM, respectively.

For `CC[C@H](C)CNCc1cccc(-c2cc(C(N)=O)c3[nH]cc(C4CCN(S(=O)(=O)CC)CC4)c3c2)c1` [Example 310, 3-[1-(ethylsulfonyl)-4-piperidinyl]-5-[3-({[(2S)-2-methylbutyl]amino}methyl)phenyl]-1H-indole-7-carboxamide], the IC50 in experiment [1] was at most 10 µM; in experiment [2], at most 1.5 µM.

Consider `CCS(=O)(=O)N1CCC(c2c[nH]c3c(C(N)=O)cc(-c4cccc(CN[C@H](C)C(C)(C)C)c4)cc23)CC1` [Example 311, 3-[1-(ethylsulfonyl)-4-piperidinyl]-5-[3-({[(1R)-1,2,2-trimethylpropyl]amino}methyl)phenyl]-1H-indole-7-carboxamide], for which the IC50 in experiment [1] is at most 10 µM; in experiment [2], at most 1.5 µM.

With `CCS(=O)(=O)N1CCC(c2c[nH]c3c(C(N)=O)cc(-c4cc(F)cc(CNC[C@@H]5CCCO5)c4)cc23)CC1` [Example 312, 3-[1-(ethylsulfonyl)-4-piperidinyl]-5-[3-fluoro-5-({[(2S)-tetrahydro-2-furanylmethyl]amino}methyl)phenyl]-1H-indole-7-carboxamide trifluoroacetate], the IC50 in experiment [1] was at most 10 µM; in experiment [2] it was at most 1.5 µM.

With `CCS(=O)(=O)N1CCC(c2c[nH]c3c(C(N)=O)cc(-c4cc(F)cc(CNC[C@H]5CCCO5)c4)cc23)CC1` [Example 313, 3-[1-(ethylsulfonyl)-4-piperidinyl]-5-[3-fluoro-5-({[(2R)-tetrahydro-2-furanylmethyl]amino}methyl)phenyl]-1H-indole-7-carboxamide trifluoroacetate], the values for the IC50 in experiment [1] and in experiment [2] were at most 10 µM and at most 1.5 µM, respectively.

In the case of `CCS(=O)(=O)N1CCC(c2c[nH]c3c(C(N)=O)cc(-c4cc(F)cc(CN[C@@H](C)C(C)C)c4)cc23)CC1` [Example 314, 5-[3-({[(1S)-1,2-dimethylpropyl]amino}methyl)-5-fluorophenyl]-3-[1-(ethylsulfonyl)-4-piperidinyl]-1H-indole-7-carboxamide], the IC50 was at most 10 µM in experiment [1] and at most 1.5 µM in experiment [2].

For `CCS(=O)(=O)N1CCC(c2c[nH]c3c(C(N)=O)cc(-c4cc(F)cc(CN[C@H](C)C(C)C)c4)cc23)CC1` [Example 315, 5-[3-({[(1R)-1,2-dimethylpropyl]amino}methyl)-5-fluorophenyl]-3-[1-(ethylsulfonyl)-4-piperidinyl]-1H-indole-7-carboxamide trifluoroacetate], the figures for the IC50 in experiment [1] and in experiment [2] were at most 10 µM and at most 1.5 µM, respectively.

`CCC(C)NCc1cc(F)cc(-c2cc(C(N)=O)c3[nH]cc(C4CCN(S(=O)(=O)CC)CC4)c3c2)c1` (stereo not shown) [Example 316, 3-[1-(ethylsulfonyl)-4-piperidinyl]-5-(3-fluoro-5-{[(1-methylpropyl)amino]methyl}phenyl)-1H-indole-7-carboxamide trifluoroacetate]: the IC50 in experiment [1] is at most 10 µM; in experiment [2], at most 1.5 µM.

With `CCS(=O)(=O)N1CCC(c2c[nH]c3c(C(N)=O)cc(-c4cc(F)cc(CN[C@@H](C)C(C)(C)C)c4)cc23)CC1` [Example 317, 3-[1-(ethylsulfonyl)-4-piperidinyl]-5-[3-fluoro-5-({[(1S)-1,2,2-trimethylpropyl]amino}methyl)phenyl]-1H-indole-7-carboxamide trifluoroacetate], the IC50 in experiment [1] was at most 10 µM; in experiment [2] it was at most 1.5 µM.

As to `CC[C@H](C)CNCc1cc(F)cc(-c2cc(C(N)=O)c3[nH]cc(C4CCN(S(=O)(=O)CC)CC4)c3c2)c1` [Example 318, 3-[1-(ethylsulfonyl)-4-piperidinyl]-5-[3-fluoro-5-({[(2S)-2-methylbutyl]amino}methyl)phenyl]-1H-indole-7-carboxamide trifluoroacetate], the IC50 in experiment [1] was at most 10 µM; in experiment [2] it was at most 1.5 µM.

`CCC(C)CNCc1cc(F)cc(-c2cc(C(N)=O)c3[nH]cc(C4CCN(S(=O)(=O)CC)CC4)c3c2)c1` (stereo not shown) [Example 319, 3-[1-(ethylsulfonyl)-4-piperidinyl]-5-(3-fluoro-5-{[(2-methylbutyl)amino]methyl}phenyl)-1H-indole-7-carboxamide trifluoroacetate]: the results for the IC50 in experiment [1] and in experiment [2] were at most 10 µM and at most 1.5 µM, respectively.

For the compound `CCS(=O)(=O)N1CCC(c2c[nH]c3c(C(N)=O)cc(-c4cc(F)cc(CN[C@H](C)C(C)(C)C)c4)cc23)CC1` [Example 320, 3-[1-(ethylsulfonyl)-4-piperidinyl]-5-[3-fluoro-5-({[(1R)-1,2,2-trimethylpropyl]amino}methyl)phenyl]-1H-indole-7-carboxamide trifluoroacetate], the IC50 in experiment [1] is at most 10 µM; in experiment [2] it was at most 1.5 µM.

As to `CCS(=O)(=O)N1CCC(c2c[nH]c3c(C(N)=O)cc(-c4cc(F)cc(CNCC(C)(C)C)c4)cc23)CC1` [Example 321, 5-(3-{[(2,2-dimethylpropyl)amino]methyl}-5-fluorophenyl)-3-[1-(ethylsulfonyl)-4-piperidinyl]-1H-indole-7-carboxamide trifluoroacetate], the IC50 in experiment [1] was at most 10 µM; in experiment [2], at most 1.5 µM.

As for `CCS(=O)(=O)N1CCC(c2c[nH]c3c(C(N)=O)cc(-c4cc(F)cc(CNCC5CC5)c4)cc23)CC1` [Example 322, 5-(3-{[(cyclopropylmethyl)amino]methyl}-5-fluorophenyl)-3-[1-(ethylsulfonyl)-4-piperidinyl]-1H-indole-7-carboxamide trifluoroacetate], the figures for the IC50 in experiment [1] and in experiment [2] were at most 10 µM and at most 1.5 µM, respectively.

Take `CCS(=O)(=O)N1CCC(c2c[nH]c3c(C(N)=O)cc(-c4cc(F)cc(CNCC5CCCC5)c4)cc23)CC1` [Example 323, 5-(3-{[(cyclopentylmethyl)amino]methyl}-5-fluorophenyl)-3-[1-(ethylsulfonyl)-4-piperidinyl]-1H-indole-7-carboxamide trifluoroacetate]: the IC50 in experiment [1] was at most 10 µM; in experiment [2], at most 1.5 µM.

In the case of `CCS(=O)(=O)N1CCC(c2c[nH]c3c(C(N)=O)cc(-c4cc(F)cc(CNCC5CCOCC5)c4)cc23)CC1` [Example 324, 3-[1-(ethylsulfonyl)-4-piperidinyl]-5-(3-fluoro-5-{[(tetrahydro-2H-pyran-4-ylmethyl)amino]methyl}phenyl)-1H-indole-7-carboxamide trifluoroacetate], the IC50 in experiment [1] is at most 10 µM; in experiment [2], at most 1.5 µM.

For `CCS(=O)(=O)N1CCC(c2c[nH]c3c(C(N)=O)cc(-c4cc(F)cc(CNCc5cccs5)c4)cc23)CC1` [Example 325, 3-[1-(ethylsulfonyl)-4-piperidinyl]-5-(3-fluoro-5-{[(2-thienylmethyl)amino]methyl}phenyl)-1H-indole-7-carboxamide trifluoroacetate], the IC50 in experiment [1] was at most 10 µM; in experiment [2], at most 1.5 µM.

Take `CCS(=O)(=O)N1CCC(c2c[nH]c3c(C(N)=O)cc(-c4cc(F)cc(CNCCOC)c4)cc23)CC1` [Example 326, 3-[1-(ethylsulfonyl)-4-piperidinyl]-5-[3-fluoro-5-({[2-(methyloxy)ethyl]amino}methyl)phenyl]-1H-indole-7-carboxamide trifluoroacetate]: the IC50 in experiment [1] was at most 10 µM; in experiment [2], at most 1.5 µM.
